Laboratory results from patent US20060229299A1, “5ht2c Receptor antagonists in the treatment of schizophrenia” (priority 2003, published 2006).

Key:
5-HT1A receptor [1] = molecular target: 5-HT1A receptor (Homo sapiens, UniProt P08908); conditions: cited from earlier work
[2] = molecular target: M1 muscarinic acetylcholine receptor (Homo sapiens, UniProt P11229); conditions: expressed as KD; cited from earlier work
[3] = molecular target: T1, M4 muscarinic acetylcholine receptor (Homo sapiens, UniProt P08173); conditions: expressed as KD; cited from earlier work
T1 sequence (P08173 1-479): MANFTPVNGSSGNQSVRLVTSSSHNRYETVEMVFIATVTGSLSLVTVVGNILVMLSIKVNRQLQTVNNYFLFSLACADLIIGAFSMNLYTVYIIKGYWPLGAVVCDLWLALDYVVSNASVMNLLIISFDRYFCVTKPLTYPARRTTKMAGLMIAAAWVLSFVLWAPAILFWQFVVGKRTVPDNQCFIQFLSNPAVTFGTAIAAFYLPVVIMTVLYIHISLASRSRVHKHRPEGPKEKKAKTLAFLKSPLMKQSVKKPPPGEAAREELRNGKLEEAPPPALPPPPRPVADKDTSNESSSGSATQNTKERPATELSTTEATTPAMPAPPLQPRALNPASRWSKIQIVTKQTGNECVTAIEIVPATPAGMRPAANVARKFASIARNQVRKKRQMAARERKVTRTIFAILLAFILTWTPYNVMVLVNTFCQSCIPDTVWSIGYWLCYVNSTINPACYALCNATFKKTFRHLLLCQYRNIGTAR

[4] = molecular target: T2, M5 muscarinic acetylcholine receptor (Homo sapiens, UniProt P08912); conditions: expressed as KD; cited from earlier work
T2 sequence (P08912 1-532): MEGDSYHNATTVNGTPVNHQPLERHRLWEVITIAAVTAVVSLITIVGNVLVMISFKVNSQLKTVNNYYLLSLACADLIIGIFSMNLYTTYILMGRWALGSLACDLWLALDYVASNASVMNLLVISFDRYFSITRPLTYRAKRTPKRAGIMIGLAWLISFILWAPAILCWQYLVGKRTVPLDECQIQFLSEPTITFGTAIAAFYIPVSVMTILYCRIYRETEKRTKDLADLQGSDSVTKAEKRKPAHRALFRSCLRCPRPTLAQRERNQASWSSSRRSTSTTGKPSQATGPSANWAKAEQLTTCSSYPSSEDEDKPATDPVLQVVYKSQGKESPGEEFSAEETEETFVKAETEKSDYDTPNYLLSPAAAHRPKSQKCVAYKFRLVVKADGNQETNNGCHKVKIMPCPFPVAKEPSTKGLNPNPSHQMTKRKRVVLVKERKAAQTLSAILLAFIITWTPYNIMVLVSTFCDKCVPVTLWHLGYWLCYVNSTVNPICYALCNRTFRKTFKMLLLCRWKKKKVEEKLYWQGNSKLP

D1 dopamine receptor [5] = molecular target: D1 dopamine receptor (Rattus norvegicus, UniProt P18901); conditions: cited from earlier work
[6] = molecular target: M3 muscarinic acetylcholine receptor (Homo sapiens, UniProt P20309); conditions: expressed as KD; cited from earlier work
Sequence of M3 muscarinic acetylcholine receptor (P20309 whole entry): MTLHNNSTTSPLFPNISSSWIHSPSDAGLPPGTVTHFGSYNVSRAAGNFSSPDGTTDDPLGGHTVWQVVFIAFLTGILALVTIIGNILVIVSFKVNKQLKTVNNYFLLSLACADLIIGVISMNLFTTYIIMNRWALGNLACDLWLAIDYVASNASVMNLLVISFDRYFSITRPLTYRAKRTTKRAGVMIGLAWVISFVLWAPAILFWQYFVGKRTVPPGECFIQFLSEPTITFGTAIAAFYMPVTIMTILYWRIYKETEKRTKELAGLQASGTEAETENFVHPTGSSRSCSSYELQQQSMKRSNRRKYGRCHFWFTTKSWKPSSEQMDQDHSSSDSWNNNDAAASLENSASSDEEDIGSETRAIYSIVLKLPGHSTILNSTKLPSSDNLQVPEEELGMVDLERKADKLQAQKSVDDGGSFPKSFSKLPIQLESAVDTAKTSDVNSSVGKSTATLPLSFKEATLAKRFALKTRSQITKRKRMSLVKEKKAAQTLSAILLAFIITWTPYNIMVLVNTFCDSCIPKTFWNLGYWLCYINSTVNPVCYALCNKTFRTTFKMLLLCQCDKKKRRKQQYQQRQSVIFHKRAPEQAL

D4 dopamine receptor [7] = molecular target: T3, D4 dopamine receptor (Rattus norvegicus, UniProt P30729); conditions: cited from earlier work
T3 sequence (P30729 1-387): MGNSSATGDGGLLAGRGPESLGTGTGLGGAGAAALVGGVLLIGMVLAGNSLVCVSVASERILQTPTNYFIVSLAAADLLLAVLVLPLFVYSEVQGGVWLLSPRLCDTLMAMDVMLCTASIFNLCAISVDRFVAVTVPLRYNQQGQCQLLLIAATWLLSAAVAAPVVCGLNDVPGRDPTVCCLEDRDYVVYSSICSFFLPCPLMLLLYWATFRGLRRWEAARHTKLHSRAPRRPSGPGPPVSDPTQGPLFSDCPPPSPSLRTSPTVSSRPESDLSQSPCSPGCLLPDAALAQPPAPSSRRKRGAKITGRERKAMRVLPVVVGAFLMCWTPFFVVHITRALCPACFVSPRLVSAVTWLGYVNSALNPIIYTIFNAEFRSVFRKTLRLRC

H1 histamine receptor = H1 histamine receptor (Cavia porcellus, UniProt P31389); conditions: guinea-pig; cited from earlier work
Sequence of H1 histamine receptor (P31389 whole entry): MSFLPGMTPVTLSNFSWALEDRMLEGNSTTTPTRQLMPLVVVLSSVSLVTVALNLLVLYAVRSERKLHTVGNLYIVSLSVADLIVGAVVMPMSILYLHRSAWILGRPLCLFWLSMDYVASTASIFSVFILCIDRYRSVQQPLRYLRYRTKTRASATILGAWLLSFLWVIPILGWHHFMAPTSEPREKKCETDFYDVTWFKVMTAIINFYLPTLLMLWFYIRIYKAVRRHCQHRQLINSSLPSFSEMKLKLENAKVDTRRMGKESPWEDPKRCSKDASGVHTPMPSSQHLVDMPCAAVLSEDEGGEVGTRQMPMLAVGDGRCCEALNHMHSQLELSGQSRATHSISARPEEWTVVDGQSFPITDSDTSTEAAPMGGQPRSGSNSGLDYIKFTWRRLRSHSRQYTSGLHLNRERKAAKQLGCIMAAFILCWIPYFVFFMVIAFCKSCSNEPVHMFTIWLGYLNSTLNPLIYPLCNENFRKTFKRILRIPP

[8] = molecular target: mACh, muscarinic acetylcholine receptor; conditions: rat; cited from earlier work
α1-adrenoceptor [9] = conditions: species for α1 not given; cited from earlier work
D4 dopamine receptor [10] = molecular target: T4, D4 dopamine receptor (Homo sapiens, UniProt P21917); conditions: human; cited from earlier work
T4 sequence (P21917 1-419): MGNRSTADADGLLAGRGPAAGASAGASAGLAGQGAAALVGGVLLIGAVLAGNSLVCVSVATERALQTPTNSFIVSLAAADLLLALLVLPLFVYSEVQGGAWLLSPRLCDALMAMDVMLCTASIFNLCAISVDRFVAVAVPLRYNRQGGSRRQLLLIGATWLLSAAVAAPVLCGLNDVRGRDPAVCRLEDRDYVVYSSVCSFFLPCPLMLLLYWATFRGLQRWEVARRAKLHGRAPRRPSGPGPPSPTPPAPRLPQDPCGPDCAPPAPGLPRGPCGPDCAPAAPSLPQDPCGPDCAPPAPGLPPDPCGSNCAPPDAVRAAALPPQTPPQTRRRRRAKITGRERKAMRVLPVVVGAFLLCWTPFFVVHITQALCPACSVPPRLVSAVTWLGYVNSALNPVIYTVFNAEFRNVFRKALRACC

sigma, σ receptor = conditions: guinea-pig; cited from earlier work
5-HT2C receptor = molecular target: T5, 5-HT2C receptor (Sus scrofa, UniProt K7GSR7); conditions: pig; cited from earlier work
T5 sequence (K7GSR7 1-457): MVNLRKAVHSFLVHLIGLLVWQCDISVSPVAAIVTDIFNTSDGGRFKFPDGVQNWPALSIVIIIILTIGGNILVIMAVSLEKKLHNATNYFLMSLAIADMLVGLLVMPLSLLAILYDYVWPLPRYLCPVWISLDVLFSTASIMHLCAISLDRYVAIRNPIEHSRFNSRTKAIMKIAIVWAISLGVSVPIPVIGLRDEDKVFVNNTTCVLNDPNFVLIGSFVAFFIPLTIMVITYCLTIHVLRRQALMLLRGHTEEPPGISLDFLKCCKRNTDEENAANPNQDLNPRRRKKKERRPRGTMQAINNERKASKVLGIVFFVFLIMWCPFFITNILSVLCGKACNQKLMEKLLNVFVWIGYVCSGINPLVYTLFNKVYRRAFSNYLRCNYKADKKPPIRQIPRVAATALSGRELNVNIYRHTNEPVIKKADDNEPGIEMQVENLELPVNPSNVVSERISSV

α2-adrenoceptor [11] = conditions: species for α2 not stated; cited from earlier work
[12] = system: 5-HT2C receptor relative to 5-HT2A and D2 receptors; experiment: Relative 5-HT2C affinity (formula I, sum of 5-HT2C/5-HT2A and 5-HT2C/D2 affinity ratios); conditions: Table 2; sum of affinity ratios from data of Table 1
5-HT7 receptor [13] = molecular target: 5-HT7 receptor (Mus musculus, UniProt P32304); conditions: cited from earlier work
Sequence of 5-HT7 receptor (Mus musculus, UniProt P32304) (P32304 whole entry): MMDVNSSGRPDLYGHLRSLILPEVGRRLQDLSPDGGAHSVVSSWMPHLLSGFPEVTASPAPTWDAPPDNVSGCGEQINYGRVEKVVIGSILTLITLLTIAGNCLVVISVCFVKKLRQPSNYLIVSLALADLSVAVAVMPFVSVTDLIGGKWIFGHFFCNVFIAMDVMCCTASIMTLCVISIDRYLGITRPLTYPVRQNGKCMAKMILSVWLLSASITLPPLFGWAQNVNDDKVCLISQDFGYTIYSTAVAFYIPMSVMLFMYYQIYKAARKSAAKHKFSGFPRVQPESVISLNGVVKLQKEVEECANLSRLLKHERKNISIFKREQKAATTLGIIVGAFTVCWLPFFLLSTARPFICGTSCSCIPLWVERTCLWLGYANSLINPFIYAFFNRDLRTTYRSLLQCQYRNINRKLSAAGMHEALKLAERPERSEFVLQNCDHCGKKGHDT

[14] = molecular target: D2-S (short form of D2 receptor) (Homo sapiens, UniProt P14416); conditions: cited from earlier work
Sequence of D2-S (short form of D2 receptor) (P14416 1-414 isoform P14416-2): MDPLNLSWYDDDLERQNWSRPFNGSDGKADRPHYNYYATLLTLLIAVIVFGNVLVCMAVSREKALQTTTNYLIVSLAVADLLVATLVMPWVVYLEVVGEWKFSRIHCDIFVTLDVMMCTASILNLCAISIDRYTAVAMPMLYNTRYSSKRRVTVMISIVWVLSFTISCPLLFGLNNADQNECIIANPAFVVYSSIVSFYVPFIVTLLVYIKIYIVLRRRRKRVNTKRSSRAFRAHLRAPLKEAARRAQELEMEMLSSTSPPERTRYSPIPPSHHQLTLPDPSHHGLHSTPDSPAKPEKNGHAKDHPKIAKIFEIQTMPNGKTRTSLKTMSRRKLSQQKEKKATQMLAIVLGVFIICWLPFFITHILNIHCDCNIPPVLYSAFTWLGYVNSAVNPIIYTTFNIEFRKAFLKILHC

5-HT3 receptor = molecular target: T6, 5-HT3 receptor (Mus musculus, UniProt P23979); conditions: cited from earlier work
T6 sequence (P23979 24-489): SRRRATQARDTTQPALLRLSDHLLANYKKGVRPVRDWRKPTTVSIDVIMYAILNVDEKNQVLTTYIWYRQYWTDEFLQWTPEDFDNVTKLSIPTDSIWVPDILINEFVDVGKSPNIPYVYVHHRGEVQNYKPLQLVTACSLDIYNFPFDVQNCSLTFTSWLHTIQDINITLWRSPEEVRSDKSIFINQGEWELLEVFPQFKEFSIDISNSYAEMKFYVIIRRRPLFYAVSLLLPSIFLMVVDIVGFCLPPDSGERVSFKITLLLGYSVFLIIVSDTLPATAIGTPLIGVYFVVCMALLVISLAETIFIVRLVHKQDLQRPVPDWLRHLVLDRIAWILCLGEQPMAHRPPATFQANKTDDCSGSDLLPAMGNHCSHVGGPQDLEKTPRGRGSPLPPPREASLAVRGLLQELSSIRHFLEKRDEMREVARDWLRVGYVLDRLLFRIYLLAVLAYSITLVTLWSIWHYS

[15] = molecular target: D2-L (long form of D2 receptor) (Homo sapiens, UniProt P14416); conditions: cited from earlier work
Sequence of D2-L (long form of D2 receptor) (P14416 whole entry): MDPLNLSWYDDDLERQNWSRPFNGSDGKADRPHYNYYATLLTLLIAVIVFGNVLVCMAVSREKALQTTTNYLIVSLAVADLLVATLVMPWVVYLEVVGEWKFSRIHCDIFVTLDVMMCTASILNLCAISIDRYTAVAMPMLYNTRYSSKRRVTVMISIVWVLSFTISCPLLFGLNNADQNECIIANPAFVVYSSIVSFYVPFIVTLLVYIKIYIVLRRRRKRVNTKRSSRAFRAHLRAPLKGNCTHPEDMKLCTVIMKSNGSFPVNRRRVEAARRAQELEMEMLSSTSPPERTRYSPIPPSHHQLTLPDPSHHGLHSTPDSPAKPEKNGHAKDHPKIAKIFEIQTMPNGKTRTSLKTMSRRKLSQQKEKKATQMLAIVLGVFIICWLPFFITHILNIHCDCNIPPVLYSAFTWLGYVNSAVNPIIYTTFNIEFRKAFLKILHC

α2-adrenoceptor [16] = conditions: human, expressed as KD; cited from earlier work
[17] = molecular target: mACh, muscarinic acetylcholine receptor; conditions: human, expressed as KD; cited from earlier work
D1 dopamine receptor [18] = molecular target: D1 dopamine receptor (Homo sapiens, UniProt P21728); conditions: cited from earlier work
Sequence of D1 dopamine receptor (Homo sapiens, UniProt P21728) (P21728 whole entry): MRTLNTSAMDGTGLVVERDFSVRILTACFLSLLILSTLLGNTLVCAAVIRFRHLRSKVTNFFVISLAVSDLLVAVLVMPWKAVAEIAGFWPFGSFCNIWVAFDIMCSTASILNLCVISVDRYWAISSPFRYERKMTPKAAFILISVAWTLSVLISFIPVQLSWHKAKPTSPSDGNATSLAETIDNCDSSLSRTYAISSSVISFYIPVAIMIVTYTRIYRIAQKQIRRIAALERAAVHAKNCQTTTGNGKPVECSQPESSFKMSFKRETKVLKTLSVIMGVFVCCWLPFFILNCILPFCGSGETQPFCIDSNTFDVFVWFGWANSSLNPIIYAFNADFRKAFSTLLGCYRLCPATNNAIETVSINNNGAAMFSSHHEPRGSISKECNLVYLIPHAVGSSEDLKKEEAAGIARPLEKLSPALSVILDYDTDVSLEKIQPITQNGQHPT

5-HT7 receptor [19] = molecular target: 5-HT7 receptor (Rattus norvegicus, UniProt P32305); conditions: cited from earlier work
Sequence of 5-HT7 receptor (Rattus norvegicus, UniProt P32305) (P32305 whole entry): as the sequence (P32304 whole entry) above, with R27G, S39P, P53L, S279P, C438S counted along it

5-HT6 receptor = 5-HT6 receptor (Rattus norvegicus, UniProt P31388); conditions: cited from earlier work
Sequence of 5-HT6 receptor (P31388 whole entry): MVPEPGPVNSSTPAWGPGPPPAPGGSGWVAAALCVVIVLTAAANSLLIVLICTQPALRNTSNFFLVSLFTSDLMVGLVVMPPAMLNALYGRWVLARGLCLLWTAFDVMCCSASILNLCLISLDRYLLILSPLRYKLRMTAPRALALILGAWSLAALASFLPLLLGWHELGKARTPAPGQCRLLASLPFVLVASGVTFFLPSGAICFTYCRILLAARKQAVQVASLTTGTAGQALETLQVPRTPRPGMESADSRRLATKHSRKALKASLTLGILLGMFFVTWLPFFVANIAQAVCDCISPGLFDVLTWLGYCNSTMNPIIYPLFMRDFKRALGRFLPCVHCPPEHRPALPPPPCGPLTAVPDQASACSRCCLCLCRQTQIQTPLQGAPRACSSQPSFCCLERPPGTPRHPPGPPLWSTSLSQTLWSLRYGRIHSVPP

[20] = molecular target: M2 muscarinic acetylcholine receptor (Homo sapiens, UniProt P08172); conditions: expressed as KD; cited from earlier work
Sequence of M2 muscarinic acetylcholine receptor (P08172 whole entry): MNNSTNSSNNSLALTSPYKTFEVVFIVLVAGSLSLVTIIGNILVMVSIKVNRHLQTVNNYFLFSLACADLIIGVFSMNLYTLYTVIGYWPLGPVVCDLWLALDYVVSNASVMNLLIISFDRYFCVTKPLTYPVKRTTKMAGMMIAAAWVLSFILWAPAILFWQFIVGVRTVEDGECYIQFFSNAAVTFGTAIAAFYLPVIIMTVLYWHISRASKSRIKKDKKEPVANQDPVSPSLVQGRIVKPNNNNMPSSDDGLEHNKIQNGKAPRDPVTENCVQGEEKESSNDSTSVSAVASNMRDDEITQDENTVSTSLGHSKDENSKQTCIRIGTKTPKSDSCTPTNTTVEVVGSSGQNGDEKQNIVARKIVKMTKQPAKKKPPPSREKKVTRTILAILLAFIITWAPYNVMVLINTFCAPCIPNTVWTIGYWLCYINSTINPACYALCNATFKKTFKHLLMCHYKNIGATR

α1-adrenoceptor [21] = conditions: human, expressed as KD; cited from earlier work
5-HT1A receptor [22] = molecular target: T7, 5-HT1A receptor (Rattus norvegicus, UniProt P19327); conditions: cited from earlier work
T7 sequence (P19327 1-422): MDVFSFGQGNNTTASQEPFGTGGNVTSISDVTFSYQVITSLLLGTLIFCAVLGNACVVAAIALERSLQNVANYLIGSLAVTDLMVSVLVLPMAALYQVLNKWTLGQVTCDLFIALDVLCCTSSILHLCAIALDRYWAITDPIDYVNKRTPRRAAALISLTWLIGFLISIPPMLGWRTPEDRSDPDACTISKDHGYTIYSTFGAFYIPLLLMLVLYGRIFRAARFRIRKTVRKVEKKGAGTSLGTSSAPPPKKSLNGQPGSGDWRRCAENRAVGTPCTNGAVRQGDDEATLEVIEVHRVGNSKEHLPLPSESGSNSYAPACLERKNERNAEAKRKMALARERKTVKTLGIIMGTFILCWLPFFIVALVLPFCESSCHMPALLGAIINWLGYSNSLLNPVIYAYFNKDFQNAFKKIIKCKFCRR

Sequence of 5-HT1A receptor (Homo sapiens, UniProt P08908) (P08908 whole entry): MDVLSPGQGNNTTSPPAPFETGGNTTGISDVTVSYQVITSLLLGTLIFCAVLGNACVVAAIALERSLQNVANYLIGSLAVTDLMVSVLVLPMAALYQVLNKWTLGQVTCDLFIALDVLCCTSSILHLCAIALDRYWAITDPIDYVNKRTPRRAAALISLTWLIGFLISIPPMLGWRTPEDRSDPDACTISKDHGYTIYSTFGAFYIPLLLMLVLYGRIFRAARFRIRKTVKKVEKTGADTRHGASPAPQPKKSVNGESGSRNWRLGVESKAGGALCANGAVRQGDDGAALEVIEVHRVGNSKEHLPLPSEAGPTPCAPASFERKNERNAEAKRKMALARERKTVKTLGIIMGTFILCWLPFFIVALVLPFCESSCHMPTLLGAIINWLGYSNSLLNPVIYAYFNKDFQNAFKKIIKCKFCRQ
Sequence of M1 muscarinic acetylcholine receptor (P11229 whole entry): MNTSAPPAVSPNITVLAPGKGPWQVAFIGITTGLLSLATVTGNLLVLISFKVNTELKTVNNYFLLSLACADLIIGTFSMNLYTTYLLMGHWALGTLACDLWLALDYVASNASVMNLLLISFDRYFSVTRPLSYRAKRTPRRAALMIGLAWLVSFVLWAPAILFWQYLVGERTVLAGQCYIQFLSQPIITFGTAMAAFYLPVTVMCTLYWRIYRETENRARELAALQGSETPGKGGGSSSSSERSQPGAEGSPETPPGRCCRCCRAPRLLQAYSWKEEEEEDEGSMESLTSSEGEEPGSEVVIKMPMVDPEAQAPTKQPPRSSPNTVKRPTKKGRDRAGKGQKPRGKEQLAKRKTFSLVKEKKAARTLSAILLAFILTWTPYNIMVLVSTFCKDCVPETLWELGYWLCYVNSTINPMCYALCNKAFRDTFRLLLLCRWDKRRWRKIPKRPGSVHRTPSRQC

| SMILES | M4 affinity value (−log KD) [3] | M5 affinity value (−log KD) [4] | M3 affinity value (−log KD) [6] | D4 affinity value (−logKi) (D4 dopamine receptor [7]) | H1 affinity value (−logKi) (H1 histamine receptor) | mACh affinity value (−logKi) [8] | α1 affinity value (−logKi) (α1-adrenoceptor [9]) | D4 affinity value (−logKi) (D4 dopamine receptor [10]) | sigma affinity value (−logKi) (sigma, σ receptor) | 5-HT2C affinity value (−logKi) (5-HT2C receptor) | (2C/2A) + (2C/D2) [12] | 5-HT7 affinity value (−logKi) (5-HT7 receptor [19]) | 5-HT6 affinity value (−logKi) (5-HT6 receptor) | further results |
| --- | --- | --- | --- | --- | --- | --- | --- | --- | --- | --- | --- | --- | --- | --- |
| CN1CCN(C2=Nc3ccccc3Oc3ccc(Cl)cc32)CC1 [Loxapine] | 6.5^15 | 6.6^15 | 6.4^15 | 7.9^4 |  |  |  |  |  |  |  |  |  | 5-HT1A affinity value (−logKi) (5-HT1A receptor [1]): 5.5^5; M1 affinity value (−log KD) [2]: 7.2^15; D1 affinity value (−logKi) (D1 dopamine receptor [5]): 7.5^18 |
| NC(=O)C1(N2CCCCC2)CCN(CCCC(=O)c2ccc(F)cc2)CC1 [Pipamperone] |  |  |  |  | <5.3^6 | <5.3^6 | 7.2^6 | 8.3^6 | 7.3^6 | 6.9^6 | 1.83 |  |  | α2 affinity value (−logKi) (α2-adrenoceptor [11]): 6.2^6; 5-HT7 affinity value (−logKi) (5-HT7 receptor [13]): 6.8^6; D2-S affinity value (−logKi) [14]: 7.0^6; 5-HT3 affinity value (−logKi) (5-HT3 receptor): <5.3^6; D2-L affinity value (−logKi) [15]: 6.9^6 |
| CN1CCN(CC/C=C2/c3ccccc3Sc3ccc(S(=O)(=O)N(C)C)cc32)CC1 [Thiothixene] | 5.8^15 | 5.4^15 | 5.8^15 | 7.1^4 |  |  |  |  |  |  | 1.43 | 7.9^2 | 7.4^2 | α2 affinity value (−log KD) (α2-adrenoceptor [16]): 6.7^16; mACh affinity value (−log KD) [17]: 5.5^16; D1 affinity value (−logKi) (D1 dopamine receptor [18]): 6.5^9; M2 affinity value (−log KD) [20]: 5.7^15; α1 affinity value (−log KD) (α1-adrenoceptor [21]): 8.0^16 |
| CN(C)CCOC1=Cc2ccccc2Sc2ccc(Cl)cc21 [Zotepine] | 7.1^15 | 6.6^15 |  | 8.2^4 | 8.5^6 | 6.3^6 | 8.5^6 | 7.4^6 | 6.3^6 | 8.5^6 | 2.02 | 8.8^2 | 9.0^2 | 5-HT1A affinity value (−logKi) (5-HT1A receptor [22]): 6.5^6 |
